According to patent US20190374543A1, “Therapeutic Combinations of an Antifolate and a BTK Inhibitor” (Acerta Pharma B.V., priority 2016, published 2019):

Experiments:
Format in all cases: in vivo
[1] = tested on: type II collagen arthritis; assay: mouse type II collagen arthritis model: body weight, daily clinical arthritis scores (AUC), incidence
[2] = tested on: type II collagen arthritis; assay: histopathology of paws and knees in mouse type II collagen arthritis model; conditions: for Histopathology Summed Scores (All Joints): mean (SE)
Description: (§1) On study day 43, mice were euthanized and necropsy specimens were obtained. After terminal bleeds, animals were euthanized by cervical dislocation. Fore paws, hind paws, and knees were harvested and placed in 10% neutral buffered formalin (NBF) for microscopy. Spleens were harvested from a subset of mice and processed for splenocytes.
After 1-2 days in fixative and 4-5 days in 5% formic acid for decalcification, tissues were trimmed, and processed for paraffin embedding. Paws were embedded in paraffin in the frontal plane and knees were embedded with the patella facing down. Ankles, if left attached to the hind paw, were also embedded in the frontal plane but in some instances were detached and sectioned in the sagittal plane for special purposes. Left/right pairs were typically embedded in the same block. Sections were then cut and stained with toluidine blue.
When scoring paws or ankles from mice with lesions of type II collagen arthritis, severity of changes as well as number of individual joints affected was considered. When only one to three joints of the paws or ankles out of a possibility of numerous metacarpal/metatarsal/digit or tarsal/tibiotarsal joints was affected, an arbitrary assignment of a maximum score of 0.5, 1, 2 or 3 for parameters below was given depending on severity of changes. If more than three joints were involved, the criteria below were applied to the most severely affected/majority of joints. In the case of knees, severity of changes in medial and lateral, as well as femoropatellar spaces, were considered.
The following parameters were scored according to the indicated criteria: Inflammation Score, Pannus Score, Cartilage Damage Score, Bone Resorption Score, and Periosteal New Bone Formation Score and Measurements. Unless otherwise indicated, criteria apply to both paws and knees. Mean values for each parameter are determined separately for the paws, knees, and the entire animal (if applicable).
The Inflammation Score was determined based on the following criteria for Paw Score and Knee Score.
The Paw Score was classified based on the following criteria: 0=Normal; 0.5=Very minimal, affects only 1 joint or minimal multifocal periarticular infiltration of inflammatory cells; 1=Minimal infiltration of inflammatory cells in synovium and periarticular tissue of affected joints; 2=Mild infiltration of inflammatory cells. If referring to paws, generally restricted to affected joints (1-3 affected); 3=Moderate infiltration with moderate edema. If referring to paws, restricted to affected joints, generally 3-4 joints and the wrist or ankle; 4=Marked infiltration affecting most areas with marked edema, 1 or 2 unaffected joints may be present; 5=Severe diffuse infiltration with severe edema affecting all joints (to some extent) and periarticular tissues.
The Knee Score was classified based on the following criteria: 0=Normal; 0.5=Very minimal, affects only one area of the synovium or minimal multifocal periarticular infiltration of inflammatory cells; 1=Minimal infiltration of inflammatory cells in synovium and periarticular tissue of affected synovial areas; 2=Mild diffuse infiltration of inflammatory cells; 3=Moderate diffuse infiltration of inflammatory cells; 4=Marked diffuse infiltration of inflammatory cells; 5=Severe diffuse infiltration of inflammatory cells.
The inflammatory infiltrate in mice and rats with type II collagen arthritis consists of neutrophils and macrophages with smaller numbers of lymphocytes when the lesions are in the acute to subacute phase. Tissue edema and neutrophil exudates within the joint space are common in the acute to subacute phase. As the inflammation progresses to chronic, mononuclear inflammatory cells (monocytes, lymphocytes) predominate and fibroblast proliferation, often with deposition of metachromatic matrix, occurs in synovium and periarticular tissue. Exudate is less common in the joint space.

BTK = biological target: T1, BTK (Mus musculus, UniProt P35991); assay: BTK occupancy in splenocytes collected after euthanasia; conditions: with vs without MTX co-treatment
T1 construct: from tissue; host or cells: splenocytes from spleens of collagen-induced-arthritis DBA/1 mice
T1 sequence (P35991 whole entry): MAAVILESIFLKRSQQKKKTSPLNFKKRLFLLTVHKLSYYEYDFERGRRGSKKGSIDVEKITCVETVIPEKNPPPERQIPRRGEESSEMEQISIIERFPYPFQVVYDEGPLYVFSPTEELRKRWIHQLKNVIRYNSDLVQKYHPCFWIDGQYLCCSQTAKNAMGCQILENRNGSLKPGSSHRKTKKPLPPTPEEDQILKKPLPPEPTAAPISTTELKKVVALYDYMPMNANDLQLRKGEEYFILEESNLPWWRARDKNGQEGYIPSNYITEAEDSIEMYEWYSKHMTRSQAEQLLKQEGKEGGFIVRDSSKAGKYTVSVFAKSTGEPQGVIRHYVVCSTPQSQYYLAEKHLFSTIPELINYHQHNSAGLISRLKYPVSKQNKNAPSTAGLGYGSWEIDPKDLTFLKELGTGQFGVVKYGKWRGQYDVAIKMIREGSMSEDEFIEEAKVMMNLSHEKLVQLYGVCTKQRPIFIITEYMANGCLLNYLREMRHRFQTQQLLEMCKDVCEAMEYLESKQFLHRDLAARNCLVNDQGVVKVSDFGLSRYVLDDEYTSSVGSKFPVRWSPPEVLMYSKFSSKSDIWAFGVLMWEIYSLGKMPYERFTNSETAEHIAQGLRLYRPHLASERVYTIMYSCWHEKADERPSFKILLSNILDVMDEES
Description: as §1

[3] = 5 mg/kg Formula (2) alone, vs vehicle controls
[4] = Group 3: MTX vehicle + BTK inhibitor of formula (2) 1 mg/kg PO QD d28-43
[5] = Group 4: MTX vehicle + BTK inhibitor of formula (2) 5 mg/kg PO QD d28-43
[6] = Group 5: MTX 0.3 mg/kg PO QD d18-43 + BTK inhibitor of formula (2) vehicle
[7] = Group 6: MTX 0.5 mg/kg PO QD d18-43 + BTK inhibitor of formula (2) vehicle

## CC#CC(=O)N1CCC[C@H]1c1nc(-c2ccc(C(=O)Nc3ccccn3)cc2)c2c(N)nccn12 [BTK inhibitor of Formula (2), (S)-4-(8-amino-3-(1-(but-2-ynoyl)pyrrolidin-2-yl)imidazo[1,5-c]pyrazin-1-yl)-N-(pyridin-2-yl)benzamide]
[1]; 1 mg/kg Formula (2), vs vehicle controls, Day 36
  disease-induced body weight loss (percent change from baseline): significantly inhibited
[1]; [3]
  daily clinical arthritis scores over time: differed significantly
  inhibition of absolute body weight loss at study termination: 66%
  reduction of arthritis scores AUC Days 18-43: 62%
[1]; 5 mg/kg Formula (2), vs vehicle controls, Days 32-38 and 43
  disease-induced body weight loss (percent change from baseline): significantly inhibited
[1]; 5 mg/kg Formula (2), vs vehicle controls, Study Days 30-43
  clinical arthritis scores: significantly reduced
[1]; [4]
  Change in Body Weight (g) Day 18-43: -0.19 g
  Clinical Arthritis Score AUC Day 18-43: 61.41
  Clinical Arthritis Score AUC Day 28-43: 54.81
  Percent Incidence: 100%
[1]; [5]
  Change in Body Weight (g) Day 18-43: *0.12 g
  Clinical Arthritis Score AUC Day 18-43: *27.30
  Clinical Arthritis Score AUC Day 28-43: *21.27
[1]; Group 4: MTX vehicle + BTK inhibitor of formula (2) 5 mg/kg PO QD d28-43, at termination, 5 mg/kg
  Percent Incidence: 42%
[1]; Group 4: MTX vehicle + BTK inhibitor of formula (2) 5 mg/kg PO QD d28-43, at termination, listed as BTK inhibitor of formula (2), 5 mg/kg
  Percent Incidence: 42%
[2]; [3]
  reduction of knee bone resorption: 90%
  reduction of knee inflammation: 72%
  reduction of knee pannus formation: 85%
  reduction of summed knee histopathology scores: 74%
  reduction of summed paw histopathology scores: 72%
  reduction of summed six-joint mean histopathology scores: 73%
  reductions of all paw histopathology parameters: 59-82%
  reductions of all six-joint mean histopathology parameters: 63-82%
  reductions of paw and six-joint mean periosteal bone widths: 82-83%
[2]; [4]
  Histopathology Summed Scores (All Joints): 11.03 (1.01)
[2]; [5]
  Histopathology Summed Scores (All Joints): *4.15 (1.01)
BTK
  Btk occupancy in splenocytes: the same in the presence or absence of MTX

## CN(Cc1cnc2nc(N)nc(N)c2n1)c1ccc(C(=O)N[C@@H](CCC(=O)O)C(=O)O)cc1 [MTX, (2S)-2-[(4-{[(2,4-Diaminopteridin-6-yl)methyl](methyl)amino}benzoyl)amino]pentanedioic acid, reference compound]
[1]; 0.5 mg/kg MTX alone, vs vehicle controls
  daily clinical arthritis scores over time: differed significantly
[1]; 0.5 mg/kg MTX, vs vehicle controls, Days 25-29
  clinical arthritis scores: significantly reduced
[1]; [6]
  Change in Body Weight (g) Day 18-43: -1.16 g
  Clinical Arthritis Score AUC Day 18-43: 51.72
  Clinical Arthritis Score AUC Day 28-43: 48.82
  Percent Incidence: 100%
[1]; [7]
  Change in Body Weight (g) Day 18-43: -0.83 g
  Clinical Arthritis Score AUC Day 18-43: 46.79
  Clinical Arthritis Score AUC Day 28-43: 45.51
  Percent Incidence: 100%
[2]; [6]
  Histopathology Summed Scores (All Joints): 10.24 (1.66)
[2]; [7]
  Histopathology Summed Scores (All Joints): 8.46 (1.36)
